Source: paper PMC10377586 (Biomolecules, 2023)

How the values were obtained:
rat A1 (rA1) ARs = target: T1, rat A1 (rA1) ARs (Rattus norvegicus, UniProt P25099); assay: Radioligand binding [3H]CCPA, rat brain cortical membranes; conditions: read-out: rA1 [3H]CCPA Ki ± SEM
T1 construct: using rat brain cortical membrane preparations for A1; tissue Pel Freez; host or cells: rat brain cortex membranes
T1 sequence (P25099 1-326): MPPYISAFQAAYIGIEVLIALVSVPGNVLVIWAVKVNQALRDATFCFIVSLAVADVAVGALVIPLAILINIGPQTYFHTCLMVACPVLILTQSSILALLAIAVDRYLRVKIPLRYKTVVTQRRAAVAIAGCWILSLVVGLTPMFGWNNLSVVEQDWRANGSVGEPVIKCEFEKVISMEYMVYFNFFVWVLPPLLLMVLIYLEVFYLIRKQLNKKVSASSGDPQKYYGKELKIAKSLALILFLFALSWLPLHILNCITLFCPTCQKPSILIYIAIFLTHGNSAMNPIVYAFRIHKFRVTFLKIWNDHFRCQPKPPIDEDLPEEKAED
Procedure: The final compounds were tested in radioligand binding assays to evaluate their affinity for all four ARs subtypes (see Table 2). Rat brain cortical membrane preparations were used as a source of rat A1 (rA1) ARs, and rat brain striatal membrane preparations served as a source of rat A2A (rA2A) ARs. For A2B- and A3AR assays, membrane preparations of Chinese hamster ovary (CHO) cells recombinantly expressing either human A2B (hA2B) or human A3 (hA3) ARs were employed.
Adenosine receptor radioligand binding assays were performed as previously described using rat brain cortical membrane preparations for A1 and rat brain striatal membrane preparations for A2A AR assays. Frozen rat brains (unstripped) were obtained from Pel Freez, Rogers, AR, USA. For assays at human AR subtypes, cell membranes of CHO cells recombinantly expressing the respective receptor were used. The following compounds were employed as radioligands: A1: [^3H]2-chloro-N^6-cyclopentyladenosine ([^3H]CCPA); A2A: [^3H]3-(3-hydroxypropyl)-7-methyl-8-(m-methoxystyryl)-1-propargylxanthine ([^3H]MSX-2); A2B: [^3H]8-(4-(4-(4-chlorophenyl)piperazine-1-sulfonyl)phenyl)-1-propylxanthine ([^3H]PSB-603); A3: [^3H]phenyl-8-ethyl-4-methyl-(8R)-4,5,7,8-tetrahydro-1H-imidazo[2,1-i]purine-5-one ([^3H]PSB-11). Initially, a single high concentration of compound was tested (1 µM). For potent compounds, full concentration–inhibition curves were determined using six to ten different concentrations of test compound spanning three orders of magnitude. At least three independent experiments were performed. Data were analyzed using GraphPad PRISM program version 4.0 or higher (Graph Pad, San Diego, CA, USA).

human MAO-A = target: T2, human MAO-A (Homo sapiens, UniProt P21397); assay: Amplex Red monoamine oxidase assay, MAO-A; format: biochemical; conditions: for IC50: human recombinant MAO-A, read-out: MAO-A IC50 ± SEM; for inhibition at 1 µM: read-out: MAO-A % Inhibition ± SEM at 1 µM
T2 construct: purchased Sigma Aldrich M7316
T2 sequence (P21397 1-527): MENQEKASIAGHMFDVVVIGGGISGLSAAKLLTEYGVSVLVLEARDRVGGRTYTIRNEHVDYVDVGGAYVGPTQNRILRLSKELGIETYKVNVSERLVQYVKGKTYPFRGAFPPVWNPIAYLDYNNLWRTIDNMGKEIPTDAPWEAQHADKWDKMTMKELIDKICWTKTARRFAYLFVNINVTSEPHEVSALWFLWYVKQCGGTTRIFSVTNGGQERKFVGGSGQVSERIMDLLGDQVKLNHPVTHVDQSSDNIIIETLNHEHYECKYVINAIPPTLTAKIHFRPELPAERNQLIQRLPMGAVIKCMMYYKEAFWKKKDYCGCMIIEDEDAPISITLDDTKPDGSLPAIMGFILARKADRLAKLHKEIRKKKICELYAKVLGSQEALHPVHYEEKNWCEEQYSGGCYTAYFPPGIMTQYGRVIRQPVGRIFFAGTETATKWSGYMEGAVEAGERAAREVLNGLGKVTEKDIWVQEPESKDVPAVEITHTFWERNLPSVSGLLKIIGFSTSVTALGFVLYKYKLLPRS
Procedure: The final compounds were evaluated in vitro for their human MAO-B (hMAO-B) inhibitory potencies, and selected structures were also investigated for human MAO-A (hMAO-A) inhibition.
Inhibition activity of compounds at MAO enzyme isoforms was measured via a fluorometric method using the Amplex Red Monoamine Oxidase Assay (ThermoFisher Scientific, Waltham, MA, USA #A12214) in a 96-well plates. Human recombinant MAO-B and MAO-A enzymes (Sigma Aldrich, St. Louis, MO, USA #M7441 and #M7316) were used. The assays were conducted as previously described.

DPPH antioxidant assay = format: physicochemical; conditions: compound at 50 µM
From the text: The 2,2-diphenyl-1-picrylhydrazyl (DPPH) assay was used to determine the antioxidant properties of selected compounds using ascorbic acid, trolox, and quercetin as references. […] From a structural point of view, 21 and 22 share a common pyrimido[2,1-f]purinedione core with propyl or butyl substituents at the N1- and N3-position. Compounds 11i and 11l, containing hexyl or phenoxyethyl as N7-substituents, were the only structures in the groups of bicyclic xanthine derivatives that lacked antioxidant activity in the DPPH assay.
Antioxidant properties of considered structures were evaluated in DPPH test. The assay utilizes a stable free radical 2,2-diphenyl-1-picrylhydrazyl (DPPH). DPPH has a deep violet color in solution and strong absorption band at 520 nm. The antioxidant activity of the tested compounds was defined by their ability to induce the formation of the reduced form of DPPH. Upon reduction, DPPH color turned pale yellow, which manifested by decreased sample absorption at 520 nm and was measured in conducted experiments using EnSpire microplate reader (PerkinElmer). Antioxidant activity of xanthine derivatives and reference compounds was tested in triplicate at 50 µM concentration and normalized to the activity of reference radical scavenger—quercetin.
Figure 2 Antioxidant properties of xanthine derivatives evaluated in the DPPH test. All compounds were tested at 50 µM concentration. Results were normalized to the antioxidant activity measured for quercetin. ASC, ascorbic acid; TLX, trolox; QCT, quercetin.

Structure (SMILES)	Ki (rat A1 (rA1) ARs) [µM]	IC50 (human MAO-A) [µM]	inhibition at 1 µM (human MAO-A) [%]	Antioxidative Activity [% of Quercetin Response at 50 µM ± SD] (DPPH antioxidant assay)
Cn1c(=O)c2c(nc3n2CCCCN3CCc2ccc(O)c(O)c2)n(C)c1=O [Compound 20b, 10-(3,4-Dihydroxyphenethyl)-1,3-dimethyl-7,8,9,10-tetrahydro-1H-[1, 3]diazepino[2,1-f]purine-2,4(3H,6H)-dione]	1.05 ± 0.17	> 1	44	79 ± 1 % of Quercetin Response
Cn1c(=O)c2c(nc(NCCc3ccc(O)c(O)c3)n2C)n(C)c1=O [Compound 11a, 8-((3,4-Dihydroxyphenethyl)amino)-1,3,7-trimethyl-3,7-dihydro-1H-purine-2,6-dione]	1.98 ± 0.29	> 1	44	79 ± 1 % of Quercetin Response
